Measurements from patent US20100055192A1, “MICRONIZED PARTICLES OF LOW-DOSAGE STRENGTH ACTIVE AGENTS FOR POWDER FORMULATIONS FOR INHALATION” (Chiesi Farmaceutici S.p.A., priority 2007, published 2010).
Counter-ions that a name gives are not always drawn.

Columns and labels:
Assay type in all cases: physicochemical
[1] = Particle size distribution by laser diffraction (Malvern apparatus); details: for Particle size d (v, 0.05): volume diameter of 5% of the particles; for Particle size d (v, 0.1): volume diameter of 10% of the particles; for Particle size d (v, 0.5): volume diameter of 50% of the particles; for Particle size d (v, 0.9): volume diameter of 90% of the particles
Protocol: (§1) The particle size was determined by laser diffraction using a Malvern apparatus. The parameters taken into consideration were the VD in microns of 5%, 10%, 50%, and 90% of the particles expressed as d(v,0.05), d(v,0.1), d(v, 0.5), and d(v, 0.9), respectively, which correspond to the mass diameter assuming a size independent density for the particles. The Specific Surface Area (SSA) was determined by BET nitrogen adsorption using a Coulter SA3100 apparatus as a mean of three determinations.
(§2) Different batches of formoterol fumarate dihydrate were milled in a jet mill apparatus at different operating conditions in order to obtain different particle size distribution. The micronized batches were characterised in terms of particle size distribution and Specific Surface Area as reported in Example 1.

[2] = Specific Surface Area by BET nitrogen adsorption (Coulter SA3100); details: mean of three determinations
Protocol: as §1, §2

[3] = Agglomerates after mixing with a carrier of coarser particles, detected by Near Infrared Spectrophotometer with microscope; details: batch added to carrier of coarser particles; suitable time of mixing, or ten hours of mixing where agglomerates remained
Protocol: (§3) The various batches were then added to a carrier made of coarser particles.
as §3

| Structure (SMILES) | Particle size d (v, 0.05) [1] | Particle size d (v, 0.1) [1] | Particle size d (v, 0.5) [1] | Particle size d (v, 0.9) [1] | SSA (Specific Surface Area) [2] | Agglomerates of the active ingredient in the formulation after mixing [3] |
| --- | --- | --- | --- | --- | --- | --- |
| COc1ccc(C[C@@H](C)NC[C@H](O)c2ccc(O)c3[nH]c(=O)ccc23)cc1 [carmoterol hydrochloride batch 5] | 0.48 μm | 0.70 μm | 1.45 μm | 2.75 μm | 11.91 m^2/g | agglomerates where still present |
| COc1ccc(C[C@@H](C)NC[C@H](O)c2ccc(O)c3[nH]c(=O)ccc23)cc1 [carmoterol hydrochloride batch 1] | 0.70 μm | 0.94 μm | 2.16 μm | 4.34 μm | 9.70 m^2/g | no agglomerates were observed |
| COc1ccc(C[C@@H](C)NC[C@H](O)c2ccc(O)c3[nH]c(=O)ccc23)cc1 [carmoterol hydrochloride batch 4] | 0.55 μm | 0.68 μm | 1.58 μm | 3.40 μm | 10.74 m^2/g | agglomerates where still present |
| COc1ccc(C[C@@H](C)NC[C@H](O)c2ccc(O)c3[nH]c(=O)ccc23)cc1 [carmoterol hydrochloride batch 6] | 0.59 μm | 0.73 μm | 1.61 μm | 3.25 μm | 11.80 m^2/g |  |
| COc1ccc(C[C@@H](C)NC[C@H](O)c2ccc(O)c3[nH]c(=O)ccc23)cc1 [carmoterol hydrochloride batch 3] | 0.58 μm | 0.59 μm | 1.32 μm | 2.75 μm | 18.11 m^2/g | agglomerates where still present |
| COc1ccc(C[C@@H](C)NC[C@H](O)c2ccc(O)c3[nH]c(=O)ccc23)cc1 [carmoterol hydrochloride batch 2] | 0.67 μm | 0.85 μm | 2.03 μm | 4.31 μm | 9.68 m^2/g | no agglomerates were observed |
